Tests used:
[1] = molecular target: T1, HOP-(1-543), full-length human HSP70/HSP90-organizing protein (Homo sapiens, UniProt P31948); experiment: protection from TPCK-trypsin digestion, SDS-PAGE; assay type: binding; conditions: 25 mM HEPES-KOH pH 7.4, 5 mM MgCl2, 100 mM KCl, 37 °C, 30 min
T1 construct: gene STIP1; full-length 1-543, His6-tagged (pCold I), E. coli BL21, Ni-NTA and Superdex 200; monomer

[2] = molecular target: T1, HOP-(1-543), full-length human HSP70/HSP90-organizing protein; experiment: 1H NMR titration (ATP H2/H8 shifts), non-linear fit; assay type: binding
[3] = molecular target: T2, HOP-(1-359), TPR1-TPR2A (ATPase domain) (Homo sapiens, UniProt P31948); experiment: 1H NMR chemical shift change (protein amide region); assay type: binding; conditions: 20 mM potassium phosphate pH 6.5, 50 mM KCl, 5 mM MgCl2, 25 °C, 10-fold molar excess ATP
T2 construct: gene STIP1; TPR1-DP1-TPR2A segment, residues 1-359, His6-tagged (pCold I), E. coli BL21

[4] = molecular target: T3, HOP-(1-543), full-length human HSP70/HSP90-organizing protein (Homo sapiens, UniProt P31948, D186A); experiment: ATP hydrolysis rate versus ATP concentration; assay type: biochemical; conditions: 25 mM HEPES-KOH pH 7.4, 5 mM MgCl2, 50 mM KCl, 37 °C
T3 construct: gene STIP1; full-length 1-543, His6-tagged (pCold I), E. coli BL21, Ni-NTA and Superdex 200; monomer
T3 sequence (P31948 whole entry D186A): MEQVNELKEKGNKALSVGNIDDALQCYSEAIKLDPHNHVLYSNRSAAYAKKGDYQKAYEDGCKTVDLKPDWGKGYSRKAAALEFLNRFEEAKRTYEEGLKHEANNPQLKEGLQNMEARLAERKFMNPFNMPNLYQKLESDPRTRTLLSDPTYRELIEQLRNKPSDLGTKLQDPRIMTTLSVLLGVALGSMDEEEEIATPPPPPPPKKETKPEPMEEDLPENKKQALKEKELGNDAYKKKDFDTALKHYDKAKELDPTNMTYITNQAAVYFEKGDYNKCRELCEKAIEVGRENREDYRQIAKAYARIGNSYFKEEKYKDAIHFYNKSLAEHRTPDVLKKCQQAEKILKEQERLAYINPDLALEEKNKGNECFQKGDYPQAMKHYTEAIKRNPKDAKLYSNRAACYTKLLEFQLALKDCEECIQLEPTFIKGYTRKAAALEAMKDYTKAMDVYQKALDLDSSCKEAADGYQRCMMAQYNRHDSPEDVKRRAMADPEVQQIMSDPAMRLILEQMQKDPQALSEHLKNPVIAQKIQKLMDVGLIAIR

T1 sequence (P31948 whole entry): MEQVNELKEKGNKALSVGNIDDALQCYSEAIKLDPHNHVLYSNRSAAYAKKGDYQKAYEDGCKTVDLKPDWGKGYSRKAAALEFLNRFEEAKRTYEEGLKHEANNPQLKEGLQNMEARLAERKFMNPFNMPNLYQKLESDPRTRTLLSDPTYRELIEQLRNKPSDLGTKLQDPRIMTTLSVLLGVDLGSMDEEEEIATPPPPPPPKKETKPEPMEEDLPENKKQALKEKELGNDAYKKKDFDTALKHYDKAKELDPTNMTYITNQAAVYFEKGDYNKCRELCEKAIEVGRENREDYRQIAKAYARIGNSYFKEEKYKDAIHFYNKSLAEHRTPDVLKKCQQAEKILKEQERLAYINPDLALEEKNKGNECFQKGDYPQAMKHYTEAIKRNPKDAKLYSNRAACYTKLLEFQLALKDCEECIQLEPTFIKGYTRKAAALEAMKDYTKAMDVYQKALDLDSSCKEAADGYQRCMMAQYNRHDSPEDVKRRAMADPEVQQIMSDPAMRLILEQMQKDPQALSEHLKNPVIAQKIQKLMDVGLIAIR
T2 sequence (P31948 1-359): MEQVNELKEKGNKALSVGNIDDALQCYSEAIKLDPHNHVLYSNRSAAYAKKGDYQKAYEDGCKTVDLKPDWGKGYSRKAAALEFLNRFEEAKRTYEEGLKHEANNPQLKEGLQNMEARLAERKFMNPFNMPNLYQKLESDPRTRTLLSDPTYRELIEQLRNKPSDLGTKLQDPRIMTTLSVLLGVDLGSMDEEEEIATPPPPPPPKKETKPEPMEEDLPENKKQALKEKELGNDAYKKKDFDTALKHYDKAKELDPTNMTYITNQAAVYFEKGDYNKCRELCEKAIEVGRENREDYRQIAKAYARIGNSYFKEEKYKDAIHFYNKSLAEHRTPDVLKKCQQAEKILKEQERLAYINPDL

protection efficiency at 5 mM [1] [%] | Kd [2] [µM] | SMILES | 1H NMR chemical shift change (protein amide region) [3] | ATP hydrolysis rate versus ATP concentration [4]
28.6 ± 10.1 | – | Nc1ncnc2c1ncn2[C@@H]1O[C@H](COP(=O)(O)OP(=O)(O)NP(=O)(O)O)[C@@H](O)[C@H]1O [AMP-PNP, adenosine 5′-(β,γ-imino)triphosphate] | – | –
31.0 ± 8.9 | – | Nc1ncnc2c1ncn2[C@@H]1O[C@H](COP(=O)(O)OP(=O)(O)O)[C@@H](O)[C@H]1O [ADP] | – | –
– | 350 | Nc1ncnc2c1ncn2[C@@H]1O[C@H](COP(=O)(O)OP(=O)(O)OP(=O)(O)O)[C@@H](O)[C@H]1O [ATP] | These data indicated that ATP directly binds the ATPase domain of HOP | this mutation caused no significant change in ATPase activity

— PMC3975032, “ATPase Activity and ATP-dependent Conformational Change in the Co-chaperone HSP70/HSP90-organizing Protein (HOP)” (The Journal of Biological Chemistry, 2014)
